Source: patent publication US20030065039A1, “Biologically active 1,3-bis-aromatic-prop-2-en-1-ones, 1,3-bis-aromatic-propan-1-ones, and 1,3-bis-aromatic-prop-2-yn-1-ones” (Statens Serum Institute, priority 1997, published 2003)
Where two headings read alike, the source gives them in different places.

Key:
Format in all cases: cell-based
Plasmodium falciparum = Plasmodium falciparum Assay; details: 3-H-hypoxanthine incorporation, 48 hours, read-out: Plasmodium IC50 ± SD
Method in brief: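 Parasitized erythrocytes (~1% parasitemia, 5×10^8/ml) cultured 48 h in RPMI with test compound, with 3H-hypoxanthine added for the last 24 h. Growth inhibition read as 3H-hypoxanthine incorporation into parasite DNA by liquid scintillation; uninfected and untreated infected cultures run in parallel.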

TNF-α = TNF-α production by human peripheral blood mononuclear cells, culture supernatant (ELISA); details: for inhibition at 12.5 µg/mL / inhibition at 1 µg/mL / inhibition at 5 µg/mL / inhibition at 10 µg/mL / inhibition at 20 µg/mL / inhibition at 1.25 µg/mL / inhibition at 6.25 µg/mL: Homo sapiens, PBMC
Method: Cells: Peripheral blood mononuclear cells obtained from healthy individuals. The cells were separated by a conventional method lymphoprep) and suspended in RMPI 1640 containing 5% human serum.
Stimulation of cytokine-release from human mononuclear cells: Human peripheral blood mononuclear cells from Danish donors were suspended in 1-10% (v/v) human serum in RPMI 1640 and adjusted to 2×10^6 cells per ml. 0.1 ml volumes were then dispensed into wells of 96-well microtiter plates. […] In some experiments cells were preincubated with drugs for 2 hrs before addition of stimulation antigens. The cultures were incubated overnight for TNF-α and IL-6 assays.
Supernatants were collected and assayed for TNF-α, IL-1α and IL-6 by ELISA procedures (Jakobsen et al., 1993, Fomsgaard et al., 1988, Hansen et al., 1991) with the following modifications. ELISA Maxisorp plates (Nunc, Roskilde, Denmark) were coated for 24 hrs at 4 C with 100 μl per well of 2.5 μg/ml rabbit polyclonal IgG to human recombinant TNF, IL-1α or IL-6 in 100 mM sodiumhydrogencarbonate. Non-attached sites were blocked for 1 h by 200 μl per well of 2% human serum slbumin in PBS (1 h at 37° C.), and the wells were washed 4 times in 2.5% NaCl, 0.1% Tween 20 (Merck, Darmstadt, Germany). This washing procedure was done after each of the following incubating steps:
1) 100 μl culture supernatants made to 50% (v/v) in incubation buffer (4% (v/v) normal rabbit serum, DAKO code X902), 1% polyethylene glycol (MW 6,000), 2.5% NaCl, 0.1% Tween 20 in phosphate buffered saline (PBS) were incubated 2 hrs at 37° C., dilutions of native as well as recombinant cytokine standards in the same incubation buffer were asssayed in parallel with the tested supernatants,
2) 100 μl per well of biotinilated rabbit antibodies to recombinant TNF-α, IL-1α or IL-6 (1.5 μg/ml in 0.5% human serum albumin, 0.1% Tween 20 in PBS) were added at 37° for 2 hrs,
3) […] per well of a 1:1000 dilution of streptavidin-peroxidase (Amersham, UK), at room temperature for 30 min.
Enzyme activities were quantitated after addition of 100 μl per well of 0.67 mg/ml 1,2-phenyldiamine hydrochloride (DAKO) dissolved in 100 mM citric acid-phosphate buffer, pH 5.0 containing 0.015% (v/v) H2O2. The reactions were stopped by adding 50 μl per well of 2.5 M H2SO4, and the optical densities are measured in an ELISA scanner at 490 nm against a test reference at 620 nm.
Assay: The compounds were prepared as stock solution at a concentration of 1 mg/ml in medium containing 10% DMSO. The dilutions were made in medium. The cells were stimulated with either SPAG (a malaria antigen TNF-inducer) or bacterial LPS. The supernatant of cell cultures were assayed for TNF-α using a commercial ELISA kit.

human lymphocytes = assay: Lymphocyte Proliferation Assay; details: PHA provoked proliferation of human lymphocytes, read-out: Lymphocytes IC50 ± SD
Method in brief: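 Ficoll-isolated human blood mononuclear cells (0.63×10^5/ml) in RPMI 1640 with 5% FCS were cultured in triplicate with test compound and PHA or PPD for 3 or 7 days. Proliferation measured by ^3H-thymidine incorporation over the final 24 h; triplicate median recorded.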

Leishmania promastigotes = Leishmania promastigotes Assay; details: promastigotes, 3H-thymidine uptake, read-out: Leishmania IC50 ± SD
Method in brief: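 L. major (WHO Iran vaccine strain) and L. donovani MHOM/KE/85/NLB 274 promastigotes (3×10^6/ml, day 3 and 6 cultures) exposed to compound 2 h at 26 °C, then 3H-thymidine 18 h; incorporation counted by scintillation. Microscopic counts and flagellar motility also assessed.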

[1] = Experiment 1, LPS, 12.5 μg/ml, Control 1.17
[2] = Experiment 1, LPS, 25 μg/ml, Control 1.17
[3] = Experiment 1, LPS, 50 μg/ml, Control 1.17
[4] = Experiment 1, LPS, 100 μg/ml, Control 1.17
[5] = Experiment 1, SPAG, 12.5 μg/ml, Control 3.73
[6] = Experiment 1, SPAG, 25 μg/ml, Control 3.73
[7] = Experiment 1, SPAG, 50 μg/ml, Control 3.73
[8] = Experiment 1, SPAG, 100 μg/ml, Control 3.73
[9] = Experiment 2, LPS, 1.562 μg/ml, Control 2.06
[10] = Experiment 2, LPS, 3.125 μg/ml, Control 2.06
[11] = Experiment 2, LPS, 6.25 μg/ml, Control 2.06
[12] = Experiment 2, LPS, 12.5 μg/ml, Control 2.06
[13] = Experiment 2, SPAG, 1.562 μg/ml, Control 2.28
[14] = Experiment 2, SPAG, 3.125 μg/ml, Control 2.28
[15] = Experiment 2, SPAG, 6.25 μg/ml, Control 2.28
[16] = Experiment 2, SPAG, 12.5 μg/ml, Control 2.28

IC50 (Plasmodium falciparum; Plasmodium falciparum) [µM]	IC50 (Leishmania promastigotes; Leishmania) [µM]	SMILES	TNF-α production (OD values) (TNF-α; [1]) [OD]	TNF-α production (OD values) (TNF-α; [2]) [OD]	TNF-α production (OD values) (TNF-α; [3]) [OD]	TNF-α production (OD values) (TNF-α; [4]) [OD]	TNF-α production (OD values) (TNF-α; [5]) [OD]	TNF-α production (OD values) (TNF-α; [6]) [OD]	TNF-α production (OD values) (TNF-α; [7]) [OD]	TNF-α production (OD values) (TNF-α; [8]) [OD]	TNF-α production (OD values) (TNF-α; [9]) [OD]	TNF-α production (OD values) (TNF-α; [10]) [OD]	TNF-α production (OD values) (TNF-α; [11]) [OD]	TNF-α production (OD values) (TNF-α; [12]) [OD]	TNF-α production (OD values) (TNF-α; [13]) [OD]	TNF-α production (OD values) (TNF-α; [14]) [OD]	TNF-α production (OD values) (TNF-α; [15]) [OD]	TNF-α production (OD values) (TNF-α; [16]) [OD]	IC50 (human lymphocytes; Lymphocyte) [µM]	other results
		C=CC(C)(C)c1cc(/C=C/C(=O)c2ccc(O)cc2)c(OC)cc1O [Licochalcone A]																		IC50 (Plasmodium falciparum): 5.6 µM; percentage inhibition of TNF-α production (TNF-α; Table 1, LPS 1:1000, drug 1 μg/ml): 0%; percentage inhibition of TNF-α production (TNF-α; Table 1, LPS 1:1000, drug 5 μg/ml): 0%; percentage inhibition of TNF-α production (TNF-α; Table 1, LPS 1:1000, drug 10 μg/ml): 40%; percentage inhibition of TNF-α production (TNF-α; Table 1, LPS 1:1000, drug 20 μg/ml, preincubated 2 hrs): 81%; percentage inhibition of TNF-α production (TNF-α; Table 1, SPAG 1:12.5, drug 1 μg/ml): 0%; percentage inhibition of TNF-α production (TNF-α; Table 1, SPAG 1:12.5, drug 5 μg/ml): 13%; percentage inhibition of TNF-α production (TNF-α; Table 1, SPAG 1:12.5, drug 10 μg/ml): 44%; percentage inhibition of TNF-α production (TNF-α; Table 1, SPAG 1:12.5, drug 20 μg/ml, preincubated 2 hrs): 97%; percentage inhibition of TNF-α production (TNF-α; Table 2, LPS 1:1000, drug 1.25 μg/ml): 4%; percentage inhibition of TNF-α production (TNF-α; Table 2, LPS 1:1000, drug 6.25 μg/ml): 3%; percentage inhibition of TNF-α production (TNF-α; Table 2, LPS 1:1000, drug 12.5 μg/ml): 38%; percentage inhibition of TNF-α production (TNF-α; Table 2, LPS 1:1000, drug 20 μg/ml, preincubated 2 hours): 54%; percentage inhibition of TNF-α production (TNF-α; Table 2, SPAG 1:12.5, drug 1.25 μg/ml): 54%; percentage inhibition of TNF-α production (TNF-α; Table 2, SPAG 1:12.5, drug 6.25 μg/ml): 82%; percentage inhibition of TNF-α production (TNF-α; Table 2, SPAG 1:12.5, drug 12.5 μg/ml): 94%; percentage inhibition of TNF-α production (TNF-α; Table 2, SPAG 1:12.5, drug 20 μg/ml, preincubated 2 hours): 100%; IC50 (human lymphocytes): 48 ± 5 µM; IC50 (Leishmania promastigotes): 13 ± 1 µM
15	31 ± 2	COc1cc(/C=C/C(=O)c2ccc(C3CCCCC3)cc2)cc(OC)c1 [PH104, 3,5-dimethoxy-4′-cyclohexylchalcone]	1.15	0.59	0.41	0.31	0.93	0.13	0.03	0.01	1.54	1.41	1.08	0.91	2.47	2.44	1.50	0.43	39 ± 2	inhibition at 12.5 µg/mL (TNF-α; concentration of 12.5 μg/ml, read-out: inhibition of the production of TNF-α): ~75%; inhibition of the production of TNF-α (TNF-α; at higher concentrations than 12.5 μg/ml): greater than 75%
	16 ± 1	COc1cc(/C=C/C(=O)c2ccc([N+](=O)[O-])cc2)cc(OC)c1 [PH105, 4′-nitro-3,5-dimethoxychalcone]	1.07	1.13	1.69	0.99	1.94	2.00	4.00	2.3									20 ± 1	inhibitory effect on TNF-α production (TNF-α): no or very little inhibitory effect
8.7	3.5 ± 0.8	COc1cc(/C=C/C(=O)c2ccccc2F)cc(OC)c1 [PH135, 2′-fluoro-3,5-dimethoxychalcone]	0.01	0.01	0.01	0.02	0.02	0.01	0.01	0.01	0.89	0.49	0.09	0.04	0.93	0.04	0.03	0.01	6 ± 0.4	

SMILES	IC50 (Plasmodium falciparum; Plasmodium falciparum) [µM]	IC50 (Leishmania promastigotes; Leishmania) [µM]	TNF-α production (OD values) (TNF-α; [1]) [OD]	TNF-α production (OD values) (TNF-α; [2]) [OD]	TNF-α production (OD values) (TNF-α; [3]) [OD]	TNF-α production (OD values) (TNF-α; [4]) [OD]	TNF-α production (OD values) (TNF-α; [5]) [OD]	TNF-α production (OD values) (TNF-α; [6]) [OD]	TNF-α production (OD values) (TNF-α; [7]) [OD]	TNF-α production (OD values) (TNF-α; [8]) [OD]	TNF-α production (OD values) (TNF-α; [9]) [OD]	TNF-α production (OD values) (TNF-α; [10]) [OD]	TNF-α production (OD values) (TNF-α; [11]) [OD]	TNF-α production (OD values) (TNF-α; [12]) [OD]	TNF-α production (OD values) (TNF-α; [13]) [OD]	TNF-α production (OD values) (TNF-α; [14]) [OD]	TNF-α production (OD values) (TNF-α; [15]) [OD]	TNF-α production (OD values) (TNF-α; [16]) [OD]	IC50 (human lymphocytes; Lymphocyte) [µM]	other results
C=CCOc1ccc(C(=O)/C=C/c2cc(OC)cc(OC)c2)cc1 [SBC-35ma, 3,5-dimethoxy-4′-allyloxychalcone]		27 ± 2																	25 ± 2	inhibition at 1 µg/mL (TNF-α; Table 1, LPS 1:1000, drug 1 μg/ml, read-out: percentage inhibition of TNF-α production): 0%; inhibition at 5 µg/mL (TNF-α; Table 1, LPS 1:1000, drug 5 μg/ml, read-out: percentage inhibition of TNF-α production): 1%; inhibition at 10 µg/mL (TNF-α; Table 1, LPS 1:1000, drug 10 μg/ml, read-out: percentage inhibition of TNF-α production): 56%; inhibition at 20 µg/mL (TNF-α; Table 1, LPS 1:1000, drug 20 μg/ml, preincubated 2 hrs, read-out: percentage inhibition of TNF-α production): 73%; inhibition at 1 µg/mL (TNF-α; Table 1, SPAG 1:12.5, drug 1 μg/ml, read-out: percentage inhibition of TNF-α production): 0%; inhibition at 5 µg/mL (TNF-α; Table 1, SPAG 1:12.5, drug 5 μg/ml, read-out: percentage inhibition of TNF-α production): 0%; inhibition at 10 µg/mL (TNF-α; Table 1, SPAG 1:12.5, drug 10 μg/ml, read-out: percentage inhibition of TNF-α production): 55%; inhibition at 20 µg/mL (TNF-α; Table 1, SPAG 1:12.5, drug 20 μg/ml, preincubated 2 hrs, read-out: percentage inhibition of TNF-α production): 100%; inhibition at 1.25 µg/mL (TNF-α; Table 2, LPS 1:1000, drug 1.25 μg/ml, read-out: percentage inhibition of TNF-α production): 2%; inhibition at 6.25 µg/mL (TNF-α; Table 2, LPS 1:1000, drug 6.25 μg/ml, read-out: percentage inhibition of TNF-α production): 23%; inhibition at 12.5 µg/mL (TNF-α; Table 2, LPS 1:1000, drug 12.5 μg/ml, read-out: percentage inhibition of TNF-α production): 28%; inhibition at 20 µg/mL (TNF-α; Table 2, LPS 1:1000, drug 20 μg/ml, preincubated 2 hours, read-out: percentage inhibition of TNF-α production): 33%; inhibition at 1.25 µg/mL (TNF-α; Table 2, SPAG 1:12.5, drug 1.25 μg/ml, read-out: percentage inhibition of TNF-α production): 87%; inhibition at 6.25 µg/mL (TNF-α; Table 2, SPAG 1:12.5, drug 6.25 μg/ml, read-out: percentage inhibition of TNF-α production): 99%; inhibition at 12.5 µg/mL (TNF-α; Table 2, SPAG 1:12.5, drug 12.5 μg/ml, read-out: percentage inhibition of TNF-α production): 100%; inhibition at 20 µg/mL (TNF-α; Table 2, SPAG 1:12.5, drug 20 μg/ml, preincubated 2 hours, read-out: percentage inhibition of TNF-α production): 100%
